# In patent US10202339B2, “Therapeutic compounds and compositions” (AGIOS PHARMACEUTICALS, INC., priority 2012, dated 2019):
# Molecular target: IDH2 R140Q (Homo sapiens (Human), UniProt P48735, R140Q)
# Assay: IDH2 R140Q enzymatic cofactor depletion assay (diaphorase/resazurin)
# Type: biochemical
# Conditions: IDH2 R140Q enzyme, one hour preincubation with compound, one hour reaction; read-out: Enz R140Q
# Procedure, shortened: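 Enzyme preincubated with compound 1 h at room temperature, then reaction started with 50 μM NADPH and 6.3 mM α-KG and run 1 h at room temperature. Remaining NADPH measured by diaphorase (36 μg/ml)/resazurin (60 μM) stop mix, fluorescence read at Ex544/Em590 after 1 min.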
# Sequence of IDH2 R140Q (P48735 40-452 R140Q): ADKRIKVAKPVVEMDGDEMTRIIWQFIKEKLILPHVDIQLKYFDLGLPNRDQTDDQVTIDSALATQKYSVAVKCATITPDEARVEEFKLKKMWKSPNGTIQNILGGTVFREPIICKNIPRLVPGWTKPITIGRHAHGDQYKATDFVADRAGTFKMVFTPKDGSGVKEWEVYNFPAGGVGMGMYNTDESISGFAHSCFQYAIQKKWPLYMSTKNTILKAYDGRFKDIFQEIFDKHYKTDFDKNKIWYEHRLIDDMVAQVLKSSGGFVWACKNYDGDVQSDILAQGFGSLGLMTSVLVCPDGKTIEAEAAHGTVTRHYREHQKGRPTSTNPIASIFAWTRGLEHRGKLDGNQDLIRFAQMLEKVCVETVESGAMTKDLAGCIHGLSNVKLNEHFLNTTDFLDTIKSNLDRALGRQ
row,IC50,Compound
1,0.1 to 1 µM,"O=C(Nc1cccc(C(F)(F)F)c1)Nc1cc(S(=O)(=O)NCC(F)(F)F)ccc1OCC1CCOC1 (centres unmarked) [Compound 184, 4-((tetrahydrofuran-3-yl)methoxy)-N-(2,2,2-trifluoroethyl)-3-(3-(3-(trifluoromethyl)phenyl)ureido)benzenesulfonamide]"
2,0.1 to 1 µM,"CC(C)Oc1ccc(S(=O)(=O)NCC(F)(F)F)cc1NC(=O)Nc1cccc(C(F)(F)F)c1 [Compound 185, 4-isopropoxy-N-(2,2,2-trifluoroethyl)-3-(3-(3-(trifluoromethyl)phenyl)ureido)benzenesulfonamide]"
3,0.1 to 1 µM,"O=C(Nc1cccc(C(F)(F)F)c1)Nc1cc(S(=O)(=O)NCC(F)(F)F)ccc1Oc1cccnc1 [Compound 186, 4-(pyridin-3-yloxy)-N-(2,2,2-trifluoroethyl)-3-(3-(3-(trifluoromethyl)phenyl)ureido)benzenesulfonamide]"
4,0.1 to 1 µM,"O=C(Nc1ncc(Cl)s1)Nc1cc(S(=O)(=O)NCC(F)(F)F)ccc1OCC1CC1 [Compound 187, 3-(3-(5-chlorothiazol-2-yl)ureido)-4-(cyclopropylmethoxy)-N-(2,2,2-trifluoroethyl)benzenesulfonamide]"
5,0.1 to 1 µM,"O=C(Nc1ccc(F)cc1F)Nc1cc(S(=O)(=O)NCC(F)(F)F)ccc1OCC1CC1 [Compound 188, 4-(cyclopropylmethoxy)-3-(3-(2,4-difluorophenyl)ureido)-N-(2,2,2-trifluoroethyl)benzenesulfonamide]"
6,0.1 to 1 µM,"O=C(Nc1cc(C(F)(F)F)ccn1)Nc1cc(S(=O)(=O)NCC(F)(F)F)ccc1OCC1CC1 [Compound 189, 4-(cyclopropylmethoxy)-N-(2,2,2-trifluoroethyl)-3-(3-(4-(trifluoromethyl)pyridin-2-yl)ureido)benzene sulfonamide]"
7,0.1 to 1 µM,"CCOc1ccc(S(=O)(=O)NCC(F)(F)F)cc1NC(=O)Nc1cc(C(F)(F)F)ccn1 [Compound 190, 4-ethoxy-N-(2,2,2-trifluoroethyl)-3-(3-(4-(trifluoromethyl)pyridin-2-yl)ureido)benzenesulfonamide]"
8,0.1 to 1 µM,"CCOc1ccc(S(=O)(=O)NCC(F)(F)F)cc1NC(=O)Nc1ncc(Cl)s1 [Compound 191, 3-(3-(5-chlorothiazol-2-yl)ureido)-4-ethoxy-N-(2,2,2-trifluoroethyl)benzenesulfonamide]"
9,0.1 to 1 µM,"O=C(Nc1cccc(C(F)(F)F)c1)Nc1cc(S(=O)(=O)Nc2ccccc2)ccc1Oc1ccccc1 [Compound 192, 4-phenoxy-N-phenyl-3-(3-(3-(trifluoromethyl)phenyl)ureido)benzenesulfonamide]"
10,1 to 10 µM,O=C(Nc1cccc(C(F)(F)F)c1)Nc1cc(S(=O)(=O)NC2CC2)ccc1OCc1ccccc1 [Compound 193]
11,0.1 to 1 µM,"CC[S+]([O-])c1ccc(S(=O)(=O)NCC(F)(F)F)cc1NC(=O)Nc1cccc(C(F)(F)F)c1 (centres unmarked) [Compound 195, 4-(ethylsulfinyl)-N-(2,2,2-trifluoroethyl)-3-(3-(3-(trifluoromethyl)phenyl)ureido)benzenesulfonamide]"
12,< 0.1 µM,"CCS(=O)(=O)c1ccc(S(=O)(=O)NCC(F)(F)F)cc1NC(=O)Nc1cccc(C(F)(F)F)c1 [Compound 196, 4-(ethylsulfonyl)-N-(2,2,2-trifluoroethyl)-3-(3-(3-(trifluoromethyl)phenyl)ureido)benzenesulfonamide]"
13,< 0.1 µM,"O=C(Nc1cccc(C(F)(F)F)c1)Nc1cc(S(=O)(=O)NCC(F)(F)F)cnc1OCC1CC1 [Compound 197, 6-(cyclopropylmethoxy)-N-(2,2,2-trifluoroethyl)-5-(3-(3-(trifluoromethyl)phenyl)ureido)pyridine-3-sulfonamide]"
14,0.1 to 1 µM,"O=C(Nc1cccc(C(F)(F)F)c1)Nc1cc(S(=O)(=O)NC2COC2)cnc1OCC1CC1 [Compound 198, 6-(cyclopropylmethoxy)-N-(oxetan-3-yl)-5-(3-(3-(trifluoromethyl)phenyl)ureido)pyridine-3-sulfonamide]"
15,0.1 to 1 µM,"CCOc1ncc(S(=O)(=O)NC2COC2)cc1NC(=O)Nc1cccc(C(F)(F)F)c1 [Compound 199, 6-ethoxy-N-(oxetan-3-yl)-5-(3-(3-(trifluoromethyl)phenyl)ureido)pyridine-3-sulfonamide]"
16,1 to 10 µM,"N#CC1(NS(=O)(=O)c2cnc(OCC3CC3)c(NC(=O)Nc3cccc(C(F)(F)F)c3)c2)CC1 [Compound 200, N-(1-cyanocyclopropyl)-6-(cyclopropylmethoxy)-5-(3-(3-(trifluoromethyl)phenyl)ureido)pyridine-3-sulfonamide]"
17,0.1 to 1 µM,"O=C(Nc1cccc(C(F)(F)F)c1)Nc1cc(S(=O)(=O)NCC(F)(F)F)cnc1OCC1CCOC1 (centres unmarked) [Compound 201, 6-((tetrahydrofuran-3-yl)methoxy)-N-(2,2,2-trifluoroethyl)-5-(3-(3-(trifluoromethyl)phenyl)ureido)pyridine-3-sulfonamide]"
18,0.1 to 1 µM,"CCOc1ncc(S(=O)(=O)NCC(F)(F)F)cc1NC(=O)Nc1cc(C(F)(F)F)ccn1 [Compound 202, 6-ethoxy-N-(2,2,2-trifluoroethyl)-5-(3-(4-(trifluoromethyl)pyridine-2-yl)ureido)pyridine-3-sulfonamide]"
19,0.1 to 1 µM,"O=C(Nc1cccc(C(F)(F)F)c1)Nc1cc(S(=O)(=O)NCC(F)(F)F)cnc1N1CCOCC1 [Compound 203, 6-morpholino-N-(2,2,2-trifluoroethyl)-5-(3-(3-(trifluoromethyl)phenyl)ureido)pyridine-3-sulfonamide]"
20,1 to 10 µM,"O=C(Nc1cccc(C(F)(F)F)c1)Nc1cc(S(=O)(=O)NCC(F)(F)F)cnc1NCC1CC1 [Compound 204, 6-((cyclopropylmethyl)amino)-N-(2,2,2-trifluoroethyl)-5-(3-(3-(trifluoromethyl)phenyl)ureido)pyridine-3-sulfonamide]"
21,0.1 to 1 µM,"O=C(Nc1cccc(S(=O)(=O)NCC(F)(F)F)c1)Nc1cc(C(F)(F)F)ccn1 [Compound 337, N-(2,2,2-trifluoroethyl)-3-(3-(4-(trifluoromethyl)pyridin-2-yl)ureido)benzenesulfonamide]"
22,0.1 to 1 µM,"C#Cc1ccc(S(=O)(=O)NCC(F)(F)F)cc1NC(=O)Nc1cccc(C(F)(F)F)c1 [Compound 338, 4-ethynyl-N-(2,2,2-trifluoroethyl)-3-(3-(3-(trifluoromethyl)phenyl)ureido)benzenesulfonamide]"
23,0.1 to 1 µM,"CCc1ccc(S(=O)(=O)NCC(F)(F)F)cc1NC(=O)Nc1cccc(C(F)(F)F)c1 [Compound 339, 4-ethyl-N-(2,2,2-trifluoroethyl)-3-(3-(3-(trifluoromethyl)phenyl)ureido)benzenesulfonamide]"
24,1 to 10 µM,"O=C(Nc1cccc(C(F)(F)F)c1)Nc1cc(S(=O)(=O)Nc2ccccc2)ccc1Nc1ccccc1 [Compound 340, N-phenyl-4-(phenylamino)-3-(3-(3-(trifluoromethyl)phenyl)ureido)benzenesulfonamide]"
25,1 to 10 µM,"CN(c1ccccc1)c1ccc(S(=O)(=O)Nc2ccccc2)cc1NC(=O)Nc1cccc(C(F)(F)F)c1 [Compound 341, 4-(methyl(phenyl)amino)-N-phenyl-3-(3-(3-(trifluoromethyl)phenyl)ureido)benzenesulfonamide]"
26,0.1 to 1 µM,"O=C(Nc1cccc(C(F)(F)F)c1)Nc1cc(S(=O)(=O)Nc2ccccc2)ccc1-n1ccnc1 [Compound 342, 4-(1H-imidazol-1-yl)-N-phenyl-3-(3-(3-(trifluoromethyl)phenyl)ureido)benzenesulfonamide]"
